Data set [1] deals with T1, 5-HT1A receptor (Homo sapiens, UniProt P08908).
T1 construct: expressed in transfected cells; host or cells: CHO cells, stably transfected
T1 sequence (P08908 1-422): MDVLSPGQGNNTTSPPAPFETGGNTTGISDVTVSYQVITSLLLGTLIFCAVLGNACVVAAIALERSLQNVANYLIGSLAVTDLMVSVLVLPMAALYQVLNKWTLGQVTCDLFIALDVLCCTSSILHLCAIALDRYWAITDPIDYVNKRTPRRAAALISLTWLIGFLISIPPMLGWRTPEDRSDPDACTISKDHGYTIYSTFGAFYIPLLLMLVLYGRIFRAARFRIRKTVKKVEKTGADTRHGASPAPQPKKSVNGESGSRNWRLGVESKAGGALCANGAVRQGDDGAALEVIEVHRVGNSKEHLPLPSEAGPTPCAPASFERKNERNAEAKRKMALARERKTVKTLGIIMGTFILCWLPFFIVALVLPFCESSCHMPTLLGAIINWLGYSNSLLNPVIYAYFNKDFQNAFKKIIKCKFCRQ
As to the kind of experiment: cell-based. The conditions noted are these: agonist, Ca2+ flux; for Emax: CHO, read-out: 5-HT1A % Act @ Max Dose. Summed up:
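Using HEK293 lines for the 5-HT2 subtypes and Gα15-coupled CHO cells for 5-HT1A, compounds were tested as agonists. Fluorescent Ca2+ signal followed dye loading (Fluo-4 Direct, 2.5 mM final probenecid, 50 min, 37 °C).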

The target in data set [2] is T2, 5-HT2C receptor (Homo sapiens, UniProt P28335).
T2 sequence (P28335 33-458): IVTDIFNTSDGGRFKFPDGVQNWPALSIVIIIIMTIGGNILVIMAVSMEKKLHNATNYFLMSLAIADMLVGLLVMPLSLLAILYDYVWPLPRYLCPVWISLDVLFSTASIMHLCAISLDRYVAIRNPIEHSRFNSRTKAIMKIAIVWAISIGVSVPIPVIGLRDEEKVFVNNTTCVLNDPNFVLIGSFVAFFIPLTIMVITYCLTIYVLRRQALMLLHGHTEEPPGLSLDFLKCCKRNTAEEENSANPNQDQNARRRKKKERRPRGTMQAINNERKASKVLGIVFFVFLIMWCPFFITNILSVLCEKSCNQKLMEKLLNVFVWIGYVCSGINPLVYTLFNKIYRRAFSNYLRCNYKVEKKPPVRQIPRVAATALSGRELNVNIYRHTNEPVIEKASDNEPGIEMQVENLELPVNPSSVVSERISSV
As to the kind of experiment: cell-based. The conditions noted are these: for Emax: read-out: 5-HT2C % Act @ Max Dose.

Data set [3] deals with T3, 5-HT2B receptor (Homo sapiens, UniProt P41595).
T3 construct: expressed in transfected cells; host or cells: HEK293, stably transfected
As to the kind of experiment: 5-HT2B receptor radioligand binding ([3H]LSD).

Data set [4] deals with T3, 5-HT2B receptor. The experiment in a line: cell-based. Format: cell-based. The conditions noted are these: Ca2+ flux, HEK293, max dose; for Emax: HEK293, agonist, read-out: 5-HT2B % Act @ Max Dose. Summed up: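 FLIPR Tetra fluorescence read-out of calcium flux after compound addition. Receptor-expressing stable lines were used (HEK293 for 2A/2B; CHO with Gα15 for 1A), dye-loaded with Fluo-4 Direct and 2.5 mM final probenecid, 50 min at 37 °C.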

The test system of data set [5] is C57BL/6 mice. As to the kind of experiment: Automated mouse head twitch response (HTR) assay (video tracking). The data set is classed as in vivo. The conditions noted are these: sc; for # HTR/20 min at Most Efficacious Dose: 20 min recording, at each compound's most efficacious dose (35*, 43*, 44*: suppressed below vehicle 14.5, dose is that of least suppression); for # HTR/20 min at Most Efficacious Dose / Peak HTR/min at Most Efficacious Dose: mean; for Most Efficacious Dose for Peak HTR/min: dose giving highest peak HTR/min (35*, 43*, 44*: dose that resulted in the least suppression); for Most Efficacious Dose for # HTR/20 min: dose giving most HTR/20 min (35*, 43*, 44*: dose that resulted in the least suppression); for Peak HTR/min at Most Efficacious Dose: rate over 2-min bins, at each compound's most efficacious dose (35*, 43*, 44*: suppressed below vehicle 1.62, dose is that of least suppression). As for the experimental part:
Disclosed compounds were tested for their ability to induce a head twitch response (HTR) in mice using an automated video tracking procedure, with the results summarized in Table 8 and FIG. 4.
Animals. Adult male C57BL/6 mice aged 8-10 weeks (Jackson Labs, Bar Harbor, ME; body weight 18-25 g) were used in this experiment. Animals were group housed under environmentally controlled temperatures and 12-hour light/dark cycles (lights on between 06:00-18:00 h), with ad libitum food and water. Mice were habituated to the facility for at least 5 days prior to testing. All animal procedures were approved by the local IACUC and conducted in accordance with the NIH Guide for the Care and Use of Laboratory Animals.
Procedure. Mice were administered one dose of the drug and immediately placed into a small open field for behavioral observation. High-speed video of animals' behavior was captured continuously for 20 min. Video recordings were imported into an image processing software, which detects multiple points of interest on each animal's body, including the left and right ear. HTR events were defined as periodic deviations of ear locations from temporally averaged ear locations. Predefined thresholds for magnitude and frequency of location deviations were used to filter HTR events from random head movements. The method was validated by comparing detected events with manual (human) observations and found to have an accuracy >95%. The total number of HTR events counted during the 20-min recording and the rate in HTR/min calculated over 2-min bins were determined for each animal at each dose.
Statistical Analysis. The data points shown are the mean±standard error of the mean (SEM).

The target of data set [6] is T4, 5-HT2A receptor (Homo sapiens, UniProt P28223). As to the kind of experiment: cell-based. Format: cell-based. The conditions noted are these: for Emax: read-out: 5-HT2A Arrestin % Act @ Max Dose. Summed up:
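PathHunter β-arrestin recruitment (enzyme fragment complementation): 5-HT2A fused to ProLink donor in cells co-expressing β-arrestin–β-galactosidase acceptor, seeded and held at 37° C before testing. Chemiluminescent read-out; agonist % activity = (sample RLU − vehicle)/(max control ligand − vehicle) × 100.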

Data set [7] can be described thus: in vitro. The data set is classed as in vitro ADME, human. The conditions noted are these: HLM 0.50 mg/mL, NADPH 1 mM, 1 μM compound, pH 7.4, 37° C., 60 min.
The target of data set [8] is T5, 5-HT1B receptor (Homo sapiens, UniProt P28222).
T5 construct: expressed in transfected cells
The experiment in a line: cAMP accumulation functional assay at 5-HT1B. The conditions noted are these: agonist, cAMP accumulation, max dose; read-out: 5-HT1B % Act @ Max Dose. Format: cell-based. In short, it runs like this:
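Agonist activity measured as cAMP accumulation in cells stably transfected with human 5-HT1B. Cells incubated 60 min at RT, then detection reagent added for a further 60 min at RT before plate reading.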

For data set [9], the target named is T4, 5-HT2A receptor. As to the kind of experiment: cell-based. Format: cell-based. The conditions noted are these: HEK293, agonist, Ca2+ flux, HEK293, max dose; read-out: 5-HT2A % Act @ Max Dose. The arrangement: expressed in transfected cells; host or cells: HEK293, stably transfected. In short, it runs like this: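 Cells plated and incubated overnight at 37 °C, 5% CO2; Fluo-4 Direct dye with probenecid (final 2.5 mM) added, 50 min at 37 °C; test compounds transferred and Ca2+ signal recorded. HEK293 hosts for 5-HT2A/2B, CHO + Gα15 for 5-HT1A.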

Setting [10] is: agonist, Ca2+ flux, Eurofins DiscoverX protocol, max dose.
Where [11] appears, read: agonist, beta-arrestin recruitment, max dose.
The mark [12] stands for this setting: agonist, Ca2+ flux, Eurofins DiscoverX protocol, read-out: 5-HT2C EC50.
Where [13] appears, read: agonist, beta-arrestin recruitment, PathHunter, read-out: 5-HT2A Arrestin EC50.

We go through three molecules from patent US20260317319A1, “NOVEL ERGOLINES AND METHODS OF TREATING MOOD DISORDERS” (Gilgamesh Pharma Inc., priority 2023, published 2026).

Like-named read-outs stand apart in the source and are kept apart here.

T3 sequence (P41595 whole entry): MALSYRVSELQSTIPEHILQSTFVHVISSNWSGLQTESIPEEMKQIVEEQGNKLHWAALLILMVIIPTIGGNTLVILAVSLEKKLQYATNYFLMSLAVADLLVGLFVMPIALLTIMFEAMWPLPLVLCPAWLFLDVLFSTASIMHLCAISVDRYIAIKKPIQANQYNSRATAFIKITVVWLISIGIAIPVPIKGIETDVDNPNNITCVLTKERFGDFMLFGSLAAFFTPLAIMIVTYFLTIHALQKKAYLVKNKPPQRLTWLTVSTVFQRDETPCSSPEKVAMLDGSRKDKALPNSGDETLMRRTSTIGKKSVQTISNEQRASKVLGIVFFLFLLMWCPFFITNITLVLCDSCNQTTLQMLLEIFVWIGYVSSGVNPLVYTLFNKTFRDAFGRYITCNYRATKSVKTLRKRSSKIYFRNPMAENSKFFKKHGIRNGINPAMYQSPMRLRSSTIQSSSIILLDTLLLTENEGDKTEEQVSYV
T4 sequence (P28223 whole entry, the tested form may be a part): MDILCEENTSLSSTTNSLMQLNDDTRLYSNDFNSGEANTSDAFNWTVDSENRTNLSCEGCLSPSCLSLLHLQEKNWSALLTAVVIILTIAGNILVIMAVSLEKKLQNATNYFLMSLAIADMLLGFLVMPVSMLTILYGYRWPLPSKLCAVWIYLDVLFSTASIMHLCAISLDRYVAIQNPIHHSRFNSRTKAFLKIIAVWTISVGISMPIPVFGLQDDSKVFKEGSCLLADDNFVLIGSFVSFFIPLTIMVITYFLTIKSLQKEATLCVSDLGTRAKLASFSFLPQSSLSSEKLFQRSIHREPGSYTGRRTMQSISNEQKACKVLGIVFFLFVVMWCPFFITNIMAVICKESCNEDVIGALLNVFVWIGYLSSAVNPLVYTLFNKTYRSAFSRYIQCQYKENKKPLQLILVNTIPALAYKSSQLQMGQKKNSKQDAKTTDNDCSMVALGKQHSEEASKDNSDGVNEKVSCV
T5 sequence (P28222 whole entry): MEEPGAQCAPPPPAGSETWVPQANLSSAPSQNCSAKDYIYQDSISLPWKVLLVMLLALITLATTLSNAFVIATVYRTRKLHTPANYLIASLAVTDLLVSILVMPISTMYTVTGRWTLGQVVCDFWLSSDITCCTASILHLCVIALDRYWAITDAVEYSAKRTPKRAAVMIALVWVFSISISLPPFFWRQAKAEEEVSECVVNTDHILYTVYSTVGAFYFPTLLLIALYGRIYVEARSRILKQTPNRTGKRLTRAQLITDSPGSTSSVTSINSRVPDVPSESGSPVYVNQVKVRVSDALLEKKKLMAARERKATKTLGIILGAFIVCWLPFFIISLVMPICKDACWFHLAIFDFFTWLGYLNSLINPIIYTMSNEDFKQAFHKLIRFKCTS

In turn, `CCN(CC)C(=O)[C@@H]1C=C2c3cccc4[nH]c(Br)c(c34)C[C@H]2N(C)C1` [Compound 35, (6aR,9R)-5-bromo-N,N-diethyl-7-methyl-4,6,6a,7,8,9-hexahydroindolo[4,3-fg]quinoline-9-carboxamide] yielded an EC50 in data set [1] (CHO cells with Gα15) of over 100000 nM. Besides, the “5-HT1A % Act @ Max Dose” value in data set [1] (CHO cells with Gα15, max dose) was found to be 11.94%. Further, in data set [2], the EC50 is over 10000 nM. In data set [2] (setting [10]), the “5-HT2C % Act @ Max Dose” value is listed as 0%. Further, in data set [3], affinity was put at a Ki of 4.96 nM. For the same molecule, the “5-HT2B % Act @ Max Dose” value in data set [4] (agonist) is -0.13%. For the same molecule, in data set [5], the “# HTR/20 min at Most Efficacious Dose” value stood at 2.38 HTR/20 min; the “Most Efficacious Dose for Peak HTR/min” value was “(0.1) mg/kg, sc”; the “Most Efficacious Dose for # HTR/20 min” value was “(0.1) mg/kg, sc”; the “Peak HTR/min at Most Efficacious Dose” value is reported as 0.56 HTR/min. This molecule yielded a half-maximal effective concentration (EC50) in [6] of 1.67 nM. The “5-HT2A Arrestin % Act @ Max Dose” value in data set [6] (setting [11]) was determined as 30.94%. In data set [7], the “Intrinsic clearance (Clint)” value was found to be 57.4 µL/min/mg and the “half-life (t1/2)” value is listed as 24.2 min.

As to `CC[C@@H](C)NC(=O)[C@@H]1C=C2c3cccc4[nH]c(Br)c(c34)C[C@H]2N(C)C1` [Compound 43, (6aR,9R)-5-bromo-N—((R)-sec-butyl)-7-methyl-4,6,6a,7,8,9-hexahydroindolo[4,3-fg]quinoline-9-carboxamide], the Emax in data set [8] was determined as 83.8%; in data set [9], 39.3%; in [1] (CHO cells with Gα15, max dose) it was 6.3%; in data set [2] (setting [10]), 3.13%; in data set [4], 1%; in data set [6] (setting [11]), 51.8%. Also, the EC50 in data set [2] (setting [12]) was over 10000 nM; in [6] (setting [13]), 2.23 nM. Also, the Ki in [3] (read-out: 5-HT2B Receptor Ki) was 9.46 nM. For the same molecule, the “# HTR/20 min at Most Efficacious Dose” value in data set [5] was 6.5 HTR/20 min. The “Most Efficacious Dose for # HTR/20 min” value in data set [5] is “(0.1) mg/kg, sc”. In addition, in data set [5], the “Peak HTR/min at Most Efficacious Dose” value turned out to be 1 HTR/min.

For `CCC(CC)NC(=O)[C@@H]1C=C2c3cccc4[nH]c(Br)c(c34)C[C@H]2N(C)C1` [Compound 44, (6aR,9R)-5-bromo-N-(pentan-3-yl)-7-methyl-4,6,6a,7,8,9-hexahydroindolo[4,3-fg]quinoline-9-carboxamide], the Emax in data set [8] amounted to 68.5%; in data set [9] it was 29.9%; in [1] (CHO cells with Gα15, max dose) it was 16.6%; in data set [2] (setting [10]), 40%; in [4] it was 15.7%; in data set [6] (setting [11]), 40.7%. For the same molecule, the EC50 was 4930 nM in data set [2] (setting [12]) and 1.71 nM in [6] (setting [13]). Moreover, the Ki in [3] (read-out: 5-HT2B Receptor Ki) worked out at 9.3 nM. Moreover, the “# HTR/20 min at Most Efficacious Dose” value in data set [5] was 4.38 HTR/20 min. In [5], the “Most Efficacious Dose for Peak HTR/min” value is on record as “(3.2) mg/kg, sc”. Besides, in [5], the “Most Efficacious Dose for # HTR/20 min” value is listed as “(1) mg/kg, sc”. The “Peak HTR/min at Most Efficacious Dose” value in [5] was 0.93 HTR/min.
